Data on three compounds can be found in patent US20080306257A1, “Syntheses and Preparations of Narwedine and Related Novel Compounds” (priority 2005, published 2008).

What all share (format): physicochemical
A short description of series [1]: solubility of (−)-galanthamine hydrobromide in water. On the procedure:
(§1) It has been further observed that (−)-galanthamine hydrobromide can be further purified with high yield and without degradation of the material by crystallization in water in the presence of ammonium bromide. Lower yields are obtained using water in the absence of ammonium bromide due to the high solubility of (−)-galanthamine hydrobromide in water (about 50 mg/mL at room temperature and 300 mg/mL at reflux temperature).

The nature of series [2]: epimerization of (−)-galanthamine under acidic conditions. The settings on record: under acidic conditions (presence of hydrobromic acid). On the procedure: as §1
Series [3] is described as follows: racemization in THF solution. The settings on record: THF solution at approximately 0° C. On the procedure:
Advantage of this aspect of invention include, among others, the reduction reaction of (−)-narwedine-BF3 complex can be carried out at approximately 0° C.

Turning to `Br.COc1ccc2c3c1O[C@H]1C[C@@H](O)C=C[C@@]31CCN(C)C2` [(−)-galanthamine hydrobromide], the figures for the solubility in water in series [1] (at reflux temperature) and in series [1] (at room temperature) were roughly 300 mg/mL and “about 50 mg/mL”, respectively. Consider `COc1ccc2c3c1O[C@H]1C[C@@H](O)C=C[C@@]31CCN(C)C2` [(−)-galanthamine, (4aS,6R,8aS)-4a,5,9,10,11,12-hexahydro-3-methoxy-11-methyl-6H-benzofuro[3a,3,2-ef][2]benzazepin-6-ol], for which, in series [2], the “epimerization to (−)-epigalanthamine (stability)” value is on record as “rapidly epimerized”.

For “(−)-narwedine-BF3 complex [(−)-narwedine.BF3 complex]”, the “racemization (configurational stability)” value in series [3] was “racemizes very slowly”.
